Experimental data from US8653134B2, “Hydroxyphenol derivatives, processes for the preparation thereof, pharmaceutical compositions them, and therapeutic uses thereof” (Merck Patent GmbH, priority 2005, dated 2014).

Experiments:
[1] = molecular target: T1, chimeric protein PPARγ-Gal4 (Homo sapiens, UniProt P37231); assay: PPARγ-Gal4 transactivation test (luciferase reporter) in cotransfected CV-1 cells; type: cell-based
T1 construct: expressed in transfected cells; host or cells: CV-1 cells (monkey kidney cells)
T1 sequence (P37231 238-503 limits assumed): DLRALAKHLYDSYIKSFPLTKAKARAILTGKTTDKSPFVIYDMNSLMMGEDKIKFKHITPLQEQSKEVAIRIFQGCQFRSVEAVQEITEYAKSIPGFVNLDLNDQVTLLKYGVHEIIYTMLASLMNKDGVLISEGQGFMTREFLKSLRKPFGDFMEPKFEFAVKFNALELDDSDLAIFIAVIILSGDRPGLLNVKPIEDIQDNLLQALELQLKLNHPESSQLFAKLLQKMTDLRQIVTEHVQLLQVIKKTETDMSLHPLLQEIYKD
Description: The measurement of the PPAR activation was performed according to a technique described by Lehmann et al. (J. Biol. Chem., 270, (1995), 12953-12956). CV-1 cells (monkey kidney cells) are cotransfected with an expression vector for the chimeric protein PPARγ-Gal4 and with a “reporter” plasmid that allows expression of the luciferase gene placed under the control of a promoter comprising Gal4 response elements. The cells are seeded in 96-well microplates and cotransfected using a commercial reagent with the reporter plasmid (pG5-tk-pGL3) and the expression vector for the chimeric protein (PPARγ-Gal4). After incubation for 4 hours, whole culture medium (comprising 10% foetal calf serum) is added to the wells. After 24 hours, the medium is removed and replaced with whole medium comprising the test products. The products are left in contact with the cells for 18 hours. The cells are then lysed and the luciferase activity is measured using a luminometer. A PPARγ activation factor can then be calculated by means of the activation of the expression of the reporter gene induced by the product (relative to the control cells that have received no product). In the absence of the PPARγ ligand binding domain (vector expressing Gal4 alone), the luciferase activity measured in the presence of an agonist is zero. The transactivation test using the expression of a chimeric protein Gal-4-PPARγ makes it possible to determine also whether an agonist functions as a “full” agonist or as a “partial” agonist in this system. An agonist is “partial” in this system if it induces a weaker response, i.e. it has lower efficacy, than rosiglitazone, which is a “full” agonist. In concrete terms, in our system, the transactivation obtained at the plateau with a partial agonist will be between 20% and 50% of the maximum response (efficacy) at the plateau of rosiglitazone.

Concentration to reach the maximum stimulation of the PPARγ chimeric protein ([1]; CV-1 cells, Gal-4-PPARγ transactivation)	Emax ([1]; transactivation at the plateau as % of the maximum response (efficacy) of rosiglitazone, CV-1 cells, read-out: Maximum stimulation of the PPARγ chimeric protein obtained with rosiglitazone)	melting point	Activation factor of the chimeric protein PPARγ-Gal4 ([1]; concentration 10 μM, CV-1 cells (monkey kidney cells), 18 hours contact, relative to control cells without agonist (=1))	SMILES
12.5 µM	28%	190 °C		CCCCCOc1cc2c(cc1OCc1cccc(C(=O)O)c1)C(=O)CC2 [Example 4, 3-(3-Oxo-6-pentyloxyindan-5-yloxymethyl)benzoic Acid]
			9.10	CCCCCCOc1cc2c(cc1OCCCC(=O)O)C(=O)CC2 [Example 7, 4-(6-hexyloxy-3-oxoindan-5-yloxy)butanoic acid]
